Assay results reported in PubChem BioAssay (NCI).
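Step 1: Grow cells in 96-well plates. Step 2: Expose to compound for 48 hours at 5 concentrations. Step 3: Interpolate endpoints linearly; if unreached, use highest concentration. At the GI50, growth is halved. TGI: concentration producing complete growth inhibition.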

Key:
Experiment in all cases: NCI tumour cell line growth inhibition, 48 h
SF-268 CNS = system: SF-268 CNS
MDA-MB-435 = system: MDA-MB-435
OVCAR-5 ovarian = system: OVCAR-5 ovarian
KM12 colon = system: KM12 colon
HOP-62 NSCLC = system: HOP-62 NSCLC
OVCAR-3 ovarian = system: OVCAR-3 ovarian
RPMI-8226 leukemia = system: RPMI-8226 leukemia
CAKI-1 renal = system: CAKI-1 renal

Row | SMILES | GI50 (SF-268 CNS) [µM] | TGI (SF-268 CNS) [µM] | GI50 (MDA-MB-435) [µM] | TGI (MDA-MB-435) [µM] | GI50 (OVCAR-5 ovarian) [µM] | TGI (OVCAR-5 ovarian) [µM] | GI50 (KM12 colon) [µM] | TGI (KM12 colon) [µM] | GI50 (HOP-62 NSCLC) [µM] | TGI (HOP-62 NSCLC) [µM] | GI50 (OVCAR-3 ovarian) [µM] | TGI (OVCAR-3 ovarian) [µM] | GI50 (RPMI-8226 leukemia) [µM] | TGI (RPMI-8226 leukemia) [µM] | GI50 (CAKI-1 renal) [µM] | TGI (CAKI-1 renal) [µM]
1 | CN(C)CCNc1c2c(c(NCCN(C)C)c3c(CO)c[nH]c13)C(=O)c1ccccc1C2=O | 4.27 | 22.1 | 4.56 | 20.6 | 12.7 | 33.5 | 1.03 | 5.73 | 1.02 | 7.29 | 3.91 | 25.1 | 2.17 | 12.8 | 4.64 | 19.2
2 | CC(=O)O[C@H](C[C@H](C(C)C)N(C)C(=O)[C@@H](NC(=O)[C@H]1CCCCN1C)C(C)(C)C)c1nc(C(=O)N[C@@H](Cc2ccccc2)C[C@H](C)C(=O)O)cs1 | 0.00432 | > 25 | – | – | < 0.0025 | > 25 | < 0.0025 | – | < 0.0025 | > 25 | < 0.0025 | 0.00448 | < 0.0025 | > 25 | < 0.0025 | > 25
3 | FC(F)(F)c1cc(NC2=NCCN=C(Nc3cc(C(F)(F)F)cc(C(F)(F)F)c3)SS2)cc(C(F)(F)F)c1 | 5.68 | 19.8 | 3.83 | 14.1 | 5.94 | 19.7 | 3.72 | 12.3 | 13.1 | 31.3 | 2.94 | 8.64 | 2.58 | 8.8 | 3.12 | 13.1
4 | Cc1cc(S(=O)(=O)Nc2nc3cc(-c4ccsc4)sc3c(=O)n2N)c(S)cc1Cl | 35.7 | > 100 | 85.3 | > 100 | > 100 | > 100 | 68.6 | > 100 | 50 | > 100 | > 100 | > 100 | > 100 | > 100 | > 100 | > 100
5 | N#CC1CCc2c(c(-c3cn[nH]c3C(F)(F)F)nc3c(F)cc4[nH]ncc4c23)C1 (centres undefined) | 5.02 | 27.4 | 4.43 | 41.1 | 13.7 | 57.7 | 3.34 | 41.9 | 6.09 | 33.7 | 4.89 | 42.6 | 8.4 | 78.1 | 18.6 | > 100
6 | C(#Cc1ccccc1C#Cc1ccccn1)c1ccccn1 | 17.7 | 35.7 | 8.43 | 22.5 | 17.2 | 40.5 | 11 | 22.9 | 25.6 | > 100 | – | – | – | – | 18.3 | 42.5
7 | CC(=O)Nc1cc2cc(NS(=O)(=O)c3cc(C(F)(F)F)cc(C(F)(F)F)c3)ccc2oc1=O | – | > 100 | – | > 100 | – | > 100 | – | > 100 | – | > 100 | – | > 100 | – | > 100 | – | > 100
8 | C=C(C)[C@@H]1CC[C@]2(C)[C@H](CC=C3[C@@H]4[C@H](C)[C@@H](C)CC[C@]4(CO)CC[C@]32C)[C@@]1(C)CCCN | 1.22 | 2.69 | 0.953 | 1.81 | 1.76 | 6.15 | 0.908 | 1.65 | 1.08 | 2.36 | 0.934 | 1.79 | – | – | 1.69 | 5.58
9 | Cc1nn2c(/C=C3\C(=O)Nc4ccccc43)c(C)nc2s1 | 54.6 | > 100 | 2.85 | > 100 | 50.7 | > 100 | 6.4 | > 100 | 15.7 | > 100 | 35.6 | > 100 | 49 | > 100 | > 100 | > 100
10 | NC(=S)N/N=C\c1nccc2c(C(F)(F)C(F)(F)C(F)(F)F)cccc12 | 0.0983 | 4.22 | 0.376 | > 31.6 | 0.123 | 16.8 | 0.0825 | 8.05 | 0.0752 | 1.25 | 0.0347 | 2.22 | 0.264 | – | 0.183 | 1.59
11 | O=C(O)c1cc2c(c3ccsc13)-c1ccccc1CC2 | 44 | > 100 | 42.7 | > 100 | 60.2 | > 100 | 34.3 | > 100 | 31.8 | > 100 | 28.8 | > 100 | 43.4 | > 100 | 52 | > 100
12 | CCCNc1cccc(-n2ncc3c(N/N=C/c4ccncc4)ncnc32)c1 | 8.24 | > 25 | 0.757 | > 25 | > 25 | > 25 | 1.77 | > 25 | 4.72 | > 25 | 2.17 | > 25 | > 25 | > 25 | 1.1 | > 25
13 | C=C1C(=O)O[C@H]2[C@H]1CC/C(COC(=O)/C=C/c1c[nH]c3ccccc13)=C\CC[C@@]1(C)O[C@@H]21 | 0.229 | 0.569 | 0.222 | 0.582 | 0.315 | 1.38 | 0.402 | 1.64 | 0.829 | 2.16 | 0.173 | 0.37 | 0.0332 | 0.123 | – | –
14 | Cc1cc(O)c2c(c1)C(=O)C(c1c(C)cc3c(c1O)C(=O)C1OC1C3=O)=CC2=O (centres undefined) | – | 26.2 | – | 7.71 | – | 13 | – | 28.8 | – | 26.3 | – | 5.87 | – | 3.52 | – | 2.11
15 | CCC(=O)OC1=CN2C(=NC(c3ccc(N)cc3)=CC2c2cc(OC)c(OC)c(OC)c2)S1 (centres undefined) | 3.57 | 14.4 | 2.98 | 14.1 | 4.04 | 17.1 | 3.48 | 11.7 | 4.79 | 15.1 | 2.47 | 5.56 | 2.44 | 10 | 2.91 | 11.2
16 | CC(=O)NS(=O)(=O)c1ccc(-n2nc(-c3ccccc3)cc2C2=CC(=O)C=CC2=O)cc1 | > 100 | > 100 | > 100 | > 100 | > 100 | > 100 | > 100 | > 100 | > 100 | > 100 | > 100 | > 100 | – | – | > 100 | > 100

Row | SMILES | GI50 (SF-268 CNS) [µM] | TGI (SF-268 CNS) [µM] | GI50 (MDA-MB-435) [µM] | TGI (MDA-MB-435) [µM] | GI50 (OVCAR-5 ovarian) [µM] | TGI (OVCAR-5 ovarian) [µM] | GI50 (KM12 colon) [µM] | TGI (KM12 colon) [µM] | GI50 (HOP-62 NSCLC) [µM] | TGI (HOP-62 NSCLC) [µM] | GI50 (OVCAR-3 ovarian) [µM] | TGI (OVCAR-3 ovarian) [µM] | GI50 (RPMI-8226 leukemia) [µM] | TGI (RPMI-8226 leukemia) [µM] | GI50 (CAKI-1 renal) [µM] | TGI (CAKI-1 renal) [µM]
17 | O=C(Nc1ccc(-c2ccnc(Nc3ccc(N4CCOCC4)cc3)n2)cc1)C1CCCN1 (centres undefined) | 4.9 | 44.8 | 6.39 | 21.5 | 14.6 | 30.7 | 7.49 | 27.3 | 5.16 | 27.7 | 9.43 | 27.3 | 4.61 | 24.7 | 3.29 | 17.7
18 | CC(C)(O)CCC(O)C(C)(O)C1CCC2(O)C3=CC(=O)C4(O)CC(O)C(O)CC4(C)C3CCC12C (centres undefined) (tested in a mixture with another compound) | – | > 100 | – | > 100 | – | > 100 | – | > 100 | – | > 100 | – | > 100 | – | – | – | > 100
19 | COc1ccc(S(=O)(=O)n2c3ccccc3n3ncc(-c4nnc(C)o4)c23)cc1 | 3.11 | > 74.1 | 0.339 | > 100 | 2.1 | > 100 | 0.465 | 19.9 | 0.566 | > 85.5 | 0.342 | 2.45 | 0.527 | 24.7 | 0.449 | > 100
20 | O=C(O)c1ccc2cccnc2c1O | 0.999 | 98.5 | 0.87 | 35.8 | 2.14 | > 100 | 2.02 | 25 | 1.37 | 41.6 | 1.68 | 5.22 | 0.93 | > 21.1 | 2.16 | 13.8
21 | S=c1[nH]nc(SCc2ccccc2Cl)c2[nH]cnc12 | – | > 100 | – | > 100 | – | > 100 | – | > 100 | – | > 100 | – | > 100 | – | > 100 | – | > 100
22 | CC(C)=CCC/C(C)=C/[C@H]1OC(=O)CC12C[C@H](O)C=CC2=O (some centres undefined) | 0.922 | 2.65 | 0.458 | 1.64 | 1.14 | 2.54 | 0.777 | 2.67 | 0.856 | 2.43 | 0.455 | 0.848 | 0.235 | 0.594 | 0.827 | 2.3
23 | C[C@H]1CCC/C=C/[C@@H]2C[C@H](O)C[C@H]2[C@H](O)[C@@H](SC2OC(CO)C(O)C(O)C2O)CC(=O)O1 (some centres undefined) | – | – | 69.8 | > 100 | 48 | > 100 | 30.3 | 68 | 98.9 | > 100 | > 100 | > 100 | > 100 | > 100 | > 100 | > 100
24 | O=C(c1ccccc1)c1ccccc1C(=O)c1ccccc1 | 63.4 | > 100 | 28.7 | > 100 | > 100 | > 100 | 36.2 | > 100 | > 100 | > 100 | 41 | > 100 | – | – | 19.4 | 70.6
25 | Cc1ccc(/C=C2\CN(Cc3cn(CCNc4ccnc5cc(Cl)ccc45)nn3)C/C(=C\c3ccc(C)cc3)C2=O)cc1 | 2.04 | 4.2 | 1.66 | 3.1 | 1.8 | 3.54 | 1.65 | 3.28 | 1.96 | 3.47 | 1.8 | 3.24 | 1.82 | 4.98 | – | –
26 | N#Cc1ncc(N2C(=O)C3(CCC3)N(c3ccc(OC4CCNCC4)nc3)C2=S)cc1C(F)(F)F | 18.6 | 43.2 | 15.8 | 31.3 | 17.3 | 46.8 | 18.5 | 37 | 25.2 | 67.4 | – | – | 11.5 | 32 | 14 | 28.9
27 | N=C1C(c2nc(-c3ccc(Br)cc3)cs2)=C(O)CN1CC1CCCO1 (centres undefined) | > 100 | > 100 | > 100 | > 100 | > 100 | > 100 | > 100 | > 100 | > 100 | > 100 | – | – | > 100 | > 100 | > 100 | > 100
28 | O=c1oc2cc(OS(=O)(=O)c3ccccc3)ccc2c2c1CCCCC2 | > 100 | > 100 | 9.44 | > 100 | > 100 | > 100 | – | – | > 100 | > 100 | – | – | 3.58 | > 100 | 7.38 | > 100
29 | COc1cc(CNC(=O)CCSc2nc3ccccc3c(=O)n2Cc2cc(OC)c(OC)c(OC)c2)cc(OC)c1OC | 7.13 | > 100 | – | – | 9.38 | > 100 | 3.98 | > 100 | 4.36 | 28.7 | 4.23 | 18.2 | 4 | 67.2 | 5.46 | > 100
30 | COc1cc(/C=C\c2cc(OC)c(OC)c(OC)c2)cc(NS(=O)(=O)c2cccc(Cl)c2)c1OC | 0.202 | > 100 | – | – | 0.641 | > 100 | 0.0437 | > 100 | 3.16 | > 100 | 0.0346 | > 100 | 0.0597 | > 100 | 0.0527 | 27.8
31 | CC[C@H](C)[C@H](NC(=O)c1nccn1C)C(=O)N(C)[C@H](C[C@@H](OC(C)=O)c1nc(C(=O)N[C@@H](Cc2ccccc2)C[C@H](C)C(=O)OC)cs1)C(C)C | 1.43 | > 33.3 | 0.0944 | 0.428 | 2.23 | > 33.3 | 0.553 | > 33.3 | 1.42 | > 33.3 | 0.481 | 1.65 | 0.531 | 12.1 | – | –
